Experimental data from PubChem BioAssay (NCI).
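1) Cells in 96-well plates. 2) Compound, 48 h, 5 concentrations. 3) Linear interpolation between surrounding doses. 4) Unreached endpoint = highest concentration. Definition used: TGI = concentration required for complete inhibition of growth.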

What was measured:
Assay in all cases: DTP human tumour cell line panel, 48 h
[1] = tested on: SK-MEL-5 melanoma
[2] = tested on: UACC-257 melanoma
[3] = tested on: CCRF-CEM leukemia
[4] = tested on: SF-268 CNS
[5] = tested on: ACHN renal
[6] = tested on: DU-145 prostate
[7] = tested on: MDA-MB-231 breast
[8] = tested on: SK-MEL-2 melanoma
[9] = tested on: NCI-H460 lung
[10] = tested on: M14 melanoma
[11] = tested on: U251 CNS
[12] = tested on: MCF7 breast
[13] = tested on: HOP-92 NSCLC
[14] = tested on: SNB-75 CNS
[15] = tested on: SF-539 CNS
[16] = tested on: HCT-15 colon
[17] = tested on: T-47D breast
[18] = tested on: TK-10 renal
[19] = tested on: NCI/ADR-RES ovarian
[20] = tested on: NCI-H226 lung
[21] = tested on: MOLT-4 leukemia
[22] = tested on: EKVX NSCLC
[23] = tested on: OVCAR-8 ovarian
[24] = tested on: MDA-N
[25] = tested on: A498 renal
[26] = tested on: RPMI-8226 leukemia
[27] = tested on: SK-OV-3 ovarian
[28] = tested on: UACC-62 melanoma
[29] = tested on: A549 NSCLC
[30] = tested on: OVCAR-3 ovarian
[31] = tested on: HOP-62 NSCLC
[32] = tested on: SW-620 colon
[33] = tested on: HT29 colon
[34] = tested on: HS 578T breast
[35] = tested on: SN12C renal
[36] = tested on: 786-0 renal
[37] = tested on: CAKI-1 renal
[38] = tested on: KM12 colon
[39] = tested on: LOX IMVI melanoma
[40] = tested on: UO-31 renal
[41] = tested on: IGROV1 ovarian
[42] = tested on: SK-MEL-28 melanoma
[43] = tested on: NCI-H23 lung
[44] = tested on: PC-3 prostate
[45] = tested on: COLO 205 colon
[46] = tested on: HL-60(TB) leukemia
[47] = tested on: SR leukemia
[48] = tested on: OVCAR-5 ovarian
[49] = tested on: HCT-116 colon
[50] = tested on: MDA-MB-435
[51] = tested on: SF-295 CNS
[52] = tested on: SNB-19 CNS
[53] = tested on: BT-549 breast
[54] = tested on: K-562 leukemia
[55] = tested on: NCI-H522 lung
[56] = tested on: RXF 393 renal
[57] = tested on: MALME-3M melanoma

Measured: TGI

NC(=S)Nc1[nH]c(=S)nc2[nH]ccc12
62.9 µM: [14]
53.2 µM: [46]
94.3 µM: [30]
not listed: [55] | [56] | [57]
> 100 µM: all other assays above

COc1cc(O)cc2oc(-c3ccc(O)cc3)cc(=O)c12
78.3 µM: [25]
62.7 µM: [14]
not listed: [20]
> 100 µM: all other assays above
